This experiment has as its target T1, Chk1 (Homo sapiens, UniProt O14757).
T1 construct: purchased Upstate Biotechnology
T1 sequence (O14757 1-476): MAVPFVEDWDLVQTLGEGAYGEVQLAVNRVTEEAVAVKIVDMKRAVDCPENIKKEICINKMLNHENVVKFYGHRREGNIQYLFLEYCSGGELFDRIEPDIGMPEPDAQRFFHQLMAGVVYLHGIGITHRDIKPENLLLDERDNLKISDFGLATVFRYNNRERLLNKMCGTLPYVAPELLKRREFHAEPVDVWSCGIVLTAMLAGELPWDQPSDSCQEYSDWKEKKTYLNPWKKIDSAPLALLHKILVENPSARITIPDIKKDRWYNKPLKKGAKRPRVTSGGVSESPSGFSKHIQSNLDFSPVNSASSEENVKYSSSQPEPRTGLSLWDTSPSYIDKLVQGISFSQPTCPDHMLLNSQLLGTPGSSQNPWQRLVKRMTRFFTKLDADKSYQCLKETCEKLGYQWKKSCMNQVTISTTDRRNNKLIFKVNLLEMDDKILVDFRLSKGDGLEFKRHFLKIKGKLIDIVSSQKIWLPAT
Nature of the experiment: Chk1 kinase assay: incorporation of γ-33P ATP into immobilized myelin basic protein. Type of experiment: biochemical. The settings on record: Table 11; Chk1 only; read-out: Chk1 IC50. The gist of the method: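 Chk1 (10 nM) or Chk2 (20 nM) phosphorylated plate-immobilized myelin basic protein for 1 h at room temperature in Hepes pH 7.6 buffer with MgCl2, DTT, 1% DMSO, γ-33P ATP plus 10 μM (Chk1) or 30 μM (Chk2) unlabeled ATP. Bound radioactivity counted by scintillation; IC50 determined, Ki derivable from IC50.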

Each structure is given as a SMILES string. Some results are limits rather than exact numbers.

For orientation: IC50 means the midpoint of a concentration-inhibition curve. For `CN(C)CCNC(=O)c1nc(-c2cccc(CN[C@H]3CCc4ccccc43)c2)cnc1N` [Example 556, 3-amino-6-(3-{[(1S)-2,3-dihydro-1H-inden-1-ylamino]methyl}phenyl)-N-[2-(dimethylamino)ethyl]pyrazine-2-carboxamide], the 50% inhibitory concentration (IC50) was in the range of 50 to 1000 nM. To `Nc1ncc(-c2cccc(CN[C@H]3CCc4ccccc43)c2)nc1-c1nc(-c2ccccc2)n[nH]1` [Example 557, 5-(3-{[(1S)-2,3-dihydro-1H-inden-1-ylamino]methyl}phenyl)-3-(3-phenyl-1H-1,2,4-triazol-5-yl)pyrazin-2-amine] belongs under 50 nM; to `Nc1ncc(-c2cccc(CN[C@H]3CCc4ccccc43)c2)nc1C(=O)NCCc1c[nH]cn1` [Example 558, 3-amino-6-(3-{[(1S)-2,3-dihydro-1H-inden-1-ylamino]methyl}phenyl)-N-[2-(1H-imidazol-4-yl)ethyl]pyrazine-2-carboxamide], under 50 nM. Turning to `CNCCNC(=O)c1nc(-c2cccc(CN[C@H]3CCc4ccccc43)c2)cnc1N` [Example 559, 3-amino-6-(3-{[(1S)-2,3-dihydro-1H-inden-1-ylamino]methyl}phenyl)-N-[2-(methylamino)ethyl]pyrazine-2-carboxamide], the half-maximal inhibitory concentration (IC50) is under 50 nM. To `Nc1ncc(-c2cccc(C(=O)NCc3ccccc3)c2)nc1C(=O)c1cccc(F)c1` [Example 560, 3-{5-amino-6-[(3-fluorophenyl)carbonyl]pyrazin-2-yl}-N-(phenylmethyl)benzamide] belongs at least 10000 nM; to `Nc1ncc(-c2cccc(CN[C@H]3CCc4ccccc43)c2)nc1C(=O)NCCCO` [Example 561, 3-amino-6-(3-{[(1S)-2,3-dihydro-1H-inden-1-ylamino]methyl}phenyl)-N-(3-hydroxypropyl)pyrazine-2-carboxamide], 50 to 1000 nM. In the case of `CC(C)(C)OC(=O)N1CCC(NC(=O)c2nc(-c3cccc(C(=O)NCc4ccccc4)c3)cnc2N)CC1` [Example 562, 1,1-dimethylethyl 4-({[3-amino-6-(3-{[(phenylmethyl)amino]carbonyl}phenyl)pyrazin-2-yl]carbonyl}amino)piperidine-1-carboxylate] it was at least 10000 nM; in that of `CC(C)(C)OC(=O)N1CCC(CNC(=O)c2nc(-c3cccc(C(=O)NCc4ccccc4)c3)cnc2N)CC1` [Example 563, 1,1-dimethylethyl 4-[({[3-amino-6-(3-{[(phenylmethyl)amino]carbonyl}phenyl)pyrazin-2-yl]carbonyl}amino)methyl]piperidine-1-carboxylate], at least 10000 nM. To `Nc1ncc(-c2cccc(C(=O)NCc3ccccc3)c2)nc1C(=O)NC1CCNCC1` [Example 564, 3-amino-6-(3-{[(phenylmethyl)amino]carbonyl}phenyl)-N-piperidin-4-ylpyrazine-2-carboxamide] belongs 50 to 1000 nM; to `Nc1ncc(-c2cccc(C(=O)NCc3ccccc3)c2)nc1C(=O)NCC1CCNCC1` [Example 565, 3-amino-6-(3-{[(phenylmethyl)amino]carbonyl}phenyl)-N-(piperidin-4-ylmethyl)pyrazine-2-carboxamide], 50 to 1000 nM; to `Nc1ncc(-c2cccc(C(=O)NCc3ccccc3)c2)nc1C(=O)N1CCOCC1` [Example 566, 3-[5-amino-6-(morpholin-4-ylcarbonyl)pyrazin-2-yl]-N-(phenylmethyl)benzamide], 1000 to 10000 nM. As for `CC(C)(C)OC(=O)N1CCC(NC(=O)c2nc(-c3cccc(C(=O)NCc4ccccc4)c3)cnc2N)C1` (stereo not shown) [Example 567, 1,1-dimethylethyl 3-({[3-amino-6-(3-{[(phenylmethyl)amino]carbonyl}phenyl)pyrazin-2-yl]carbonyl}amino)pyrrolidine-1-carboxylate], the IC50 was at least 10000 nM.

As for `Nc1ncc(-c2cccc(C(=O)NCc3ccccc3)c2)nc1C(=O)NC1CCNC1` (stereo not shown) [Example 568, 3-amino-6-(3-{[(phenylmethyl)amino]carbonyl}phenyl)-N-pyrrolidin-3-ylpyrazine-2-carboxamide], the IC50 lay within 50 to 1000 nM.

Consider `Nc1ncc(-c2cccc(CO)c2)nc1-c1nnc(-c2ccco2)[nH]1` [Example 570, {3-[5-amino-6-(5-furan-2-yl-4H-1,2,4-triazol-3-yl)pyrazin-2-yl]phenyl}methanol], for which the half-inhibitory concentration (IC50) is 50 to 1000 nM.

In the case of `COc1cccc(-c2nnc(-c3nc(-c4cccc(CO)c4)cnc3N)[nH]2)c1` [Example 571, [3-(5-amino-6-{5-[3-(methyloxy)phenyl]-4H-1,2,4-triazol-3-yl}pyrazin-2-yl)phenyl]methanol], the IC50 was at least 10000 nM.

On to `Nc1ncc(-c2cccc(CO)c2)nc1C(=O)NNC(=O)Nc1ccccc1` [Example 572, 2-({3-amino-6-[3-(hydroxymethyl)phenyl]pyrazin-2-yl}carbonyl)-N-phenylhydrazinecarboxamide], for which the concentration for half-maximal inhibition (IC50) fell in the range of 50 to 1000 nM.

Consider `CN1CCN(C(=O)c2nc(-c3cccc(C(=O)NCc4ccccc4)c3)cnc2N)CC1` [Example 573, 3-{5-amino-6-[(4-methylpiperazin-1-yl)carbonyl]pyrazin-2-yl}-N-(phenylmethyl)benzamide], for which the IC50 is at least 10000 nM. Turning to `Nc1ncc(-c2cccc(C(=O)NCc3ccccc3)c2)nc1C(=O)N1CCN(c2ccc(F)cc2)CC1` [Example 574, 3-(5-amino-6-{[4-(4-fluorophenyl)piperazin-1-yl]carbonyl}pyrazin-2-yl)-N-(phenylmethyl)benzamide], the IC50 was at least 10000 nM. Regarding `Nc1ncc(-c2cccc(C(=O)NCc3ccccc3)c2)nc1C(=O)N1CCN(Cc2ccccc2)CC1` [Example 575, 3-(5-amino-6-{[4-(phenylmethyl)piperazin-1-yl]carbonyl}pyrazin-2-yl)-N-(phenylmethyl)benzamide], the IC50 was at least 10000 nM. `COC(=O)CNC(=O)c1nc(-c2cccc(C(=O)NCc3ccccc3)c2)cnc1N` [Example 576, methyl N-{[3-amino-6-(3-{[(phenylmethyl)amino]carbonyl}phenyl)pyrazin-2-yl]carbonyl}glycinate]: the IC50 is 1000 to 10000 nM.

As for `Nc1ncc(-c2cccc(C(=O)NCc3ccccc3)c2)nc1C(=O)NCC(=O)O` [Example 577, N-{[3-amino-6-(3-{[(phenylmethyl)amino]carbonyl}phenyl)pyrazin-2-yl]carbonyl}glycine], the half-inhibitory concentration (IC50) is at least 10000 nM. To `Nc1ncc(-c2cccc(C(=O)NCc3ccccc3)c2)nc1C(=O)c1cc(F)cc(F)c1` [Example 578, 3-{5-amino-6-[(3,5-difluorophenyl)carbonyl]pyrazin-2-yl}-N-(phenylmethyl)benzamide] belongs at least 10000 nM; to `Nc1ncc(-c2cccc(C(=O)NCc3ccccc3)c2)nc1C(=O)c1ccc(-c2ccccc2)cc1` [Example 579, 3-[5-amino-6-(biphenyl-4-ylcarbonyl)pyrazin-2-yl]-N-(phenylmethyl)benzamide], at least 10000 nM. In the case of `Nc1ncc(-c2cccc(CO)c2)nc1-c1nc(-c2cccnc2)n[nH]1` [Example 580, {3-[5-amino-6-(3-pyridin-3-yl-1H-1,2,4-triazol-5-yl)pyrazin-2-yl]phenyl}methanol], the IC50 lay in the range of 50 to 1000 nM. For `Nc1ncc(-c2cccc(CO)c2)nc1-c1nc(-c2ccc(Cl)cc2)n[nH]1` [Example 581, (3-{5-amino-6-[3-(4-chlorophenyl)-1H-1,2,4-triazol-5-yl]pyrazin-2-yl}phenyl)methanol], the IC50 is at least 10000 nM. Regarding `CC(C)(C)c1nnc(-c2nc(-c3cccc(CN[C@H]4CCc5ccccc54)c3)cnc2N)[nH]1` [Example 582, 5-(3-{[(1S)-2,3-dihydro-1H-inden-1-ylamino]methyl}phenyl)-3-[5-(1,1-dimethylethyl)-4H-1,2,4-triazol-3-yl]pyrazin-2-amine], the IC50 lay in the range of 50 to 1000 nM.

As to `Nc1ncc(-c2cccc(CO)c2)nc1-c1nc(-c2cccs2)n[nH]1` [Example 583, (3-{5-amino-6-[3-(2-thienyl)-1H-1,2,4-triazol-5-yl]pyrazin-2-yl}phenyl)methanol], the half-inhibitory concentration (IC50) was in the range of 50 to 1000 nM. In the case of `COc1cccc(-c2n[nH]c(-c3nc(-c4cccc(CN[C@H]5CCc6ccccc65)c4)cnc3N)n2)c1` [Example 584, 5-(3-{[(1S)-2,3-dihydro-1H-inden-1-ylamino]methyl}phenyl)-3-{3-[3-(methyloxy)phenyl]-1H-1,2,4-triazol-5-yl}pyrazin-2-amine] it was 50 to 1000 nM. For `CN(C)CCCNC(=O)c1nc(-c2cccc(CN[C@H]3CCc4ccccc43)c2)cnc1N` [Example 585, 3-amino-6-(3-{[(1S)-2,3-dihydro-1H-inden-1-ylamino]methyl}phenyl)-N-[3-(dimethylamino)propyl]pyrazine-2-carboxamide], the IC50 lay in the range of 1000 to 10000 nM. Regarding `Nc1ncc(-c2cccc(CN[C@H]3CCc4ccccc43)c2)nc1C(=O)NCCCn1ccnc1` [Example 586, 3-amino-6-(3-{[(1S)-2,3-dihydro-1H-inden-1-ylamino]methyl}phenyl)-N-[3-(1H-imidazol-1-yl)propyl]pyrazine-2-carboxamide], the IC50 lay within 50 to 1000 nM. As to `Nc1ncc(-c2cccc(C(=O)NCc3ccccc3)c2)nc1C(=O)c1ccc(Cl)c(F)c1` [Example 587, 3-{5-amino-6-[(4-chloro-3-fluorophenyl)carbonyl]pyrazin-2-yl}-N-(phenylmethyl)benzamide], the IC50 was at least 10000 nM.

The values are drawn from patent publication US7704995B2 (Exelixis, Inc., priority 2003, dated 2010).
